Laboratory results: paper PMC5650142, “GPR40 partial agonists and AgoPAMs: Differentiating effects on glucose and hormonal secretions in the rodent” (PLoS ONE, 2017)
Values joined by “and” are separate entries in the source; they are usually repeats but may differ in a detail not shown here. Equal entries are not always repeated.

What was measured:
Type in all cases: in vivo
[1] = test system: wild type and GPR40-/- mice; experiment: Mouse incretin measurements (plasma glucagon, wild type and GPR40-/- mice); details: for Plasma Glucagon: @ 30, individual animals (Fig 6A)
Experimental: Wild type and GPR40-/- mice were weighed the day prior to dosing. Food was removed from mice at lights on. 2 hours later mice were dosed via oral gavage (PO) at a volume of 10 ml/kg with vehicle (0.5% methylcellulose), AP1 at 30 mg/kg, or AP3 at 30 mg/kg. At 60 minutes post dose, mice were euthanized via CO2 asphyxiation. Blood was collected via cardiac puncture.
(§1) Blood for insulin, glucagon, GLP-1, GIP, and PYY measurements was collected into K2EDTA Microtainer tubes (BD, Franklin Lakes, NJ) pre-treated with DPP4 inhibitor (Millipore, Billerica, MA) and cOmplete™ Protease Inhibitor Cocktail Tablets (Roche Diagnostics, Indianapolis, IN). Tubes were centrifuged for 10 minutes at 5000 RPM, and plasma was aliquotted for analysis. Plasma insulin levels were measured via EIA (Mesoscale Discovery ELISA Kit, Gaithersburg MD). Rat plasma total GLP-1 was measured using Total GLP-1 (ver.2) Assay Kit (Cat#: K150JVC). The measurement of active GLP-1 was carried out in a similar manner as that described for total GLP-1 assay with the exception that MSD Active GLP-1 (ver. 2) assay kit (Cat# K150JWC) was used. Rat plasma glucagon was measured using an in-house glucagon assay developed as a MSD format sandwich immunoassay (Merck & Co., Inc., MRL, Kenilworth, NJ USA). The antibody specificity was cross validated via mass- spec using procedures described in Lee et al. Briefly, MSD Streptavidin Gold plates were coated with 2 μg/ml biotin mouse monoclonal antibody generated to glucagon. Test samples were added to the plates and a separate Sulfo- tagged monoclonal antibody was used to detect the captured glucagon protein (2 μg/ml). The ELISA was carried out in the standard reagents in the MSD format. The plate was read on the SECTOR Imager 6000 Reader. Metabolic hormones GIP (Gastric Inhibitory Polypeptide) and PYY (Peptide YY) were measured in rat plasma using the Rat Metabolic Magnetic Bead Panel (EMD Millipore, Billerica, MA). The assay was performed according to manufacturer protocol.

[2] = test system: wild type C57BL/6 and GLP-1R-/- mice; experiment: Mouse glucose tolerance test (IPGTT, wild type and GLP-1R-/- mice); parameters: Blood Glucose Net AUC: unit not given here; details: for Blood Glucose / Plasma Insulin: 30 mpk, 30 mg/kg; for Blood Glucose Net AUC: @ 30, individual animals
Experimental: Wild type C57BL/6 mice and GLP-1R^-/- mice were fed a high fat diet (D12492i, Research Diets) for 6 weeks prior to GTT. On the day of study, mice were fasted at 1 h post lights on, and body weights were measured. […] Mice were then dosed PO at a volume of 10 ml/kg with vehicle (0.5% methylcellulose), MK-2305 (a GPR40 partial agonist described in Hauge et al) at 10 mg/kg, or AP1 at 30 mg/kg. Dosages of MK-2305 and AP1 were administered at maximal efficacious doses as determined by acute dose titrations with efficacy determined via reduction in glucose during an IPGTT (data not shown). […] Blood glucose was measured again (time = 0) just prior to an intraperitoneal (IP) dextrose challenge of 1 g/kg at 10 ml/kg dose volume (Dextrose, Hospira Inc., Lake Forrest IL). A subset of vehicle treated mice was injected with 0.9% NaCl saline to serve as negative control. Blood glucose was then measured at 10, 20, 40, 60, and 120 min after challenge. To capture insulin secretion during the IPGTT, blood via tail vein was collected at t = - 60, 0, 10, 20, 40, 60 min post challenge.
Net AUC was calculated by subtracting the average AUC of the saline group from each groups’ total AUC.
as §1

GK rats = experiment: GK rat acute efficacy (glucose, insulin, glucagon after single dose); details: 30 mpk
Experimental: Ambient blood glucose was measured via tail snip with a glucometer (OneTouch Ultra, Lifescan Inc., Milpitas, CA). Body weights were then measured, and food was removed approximately 1 hr post lights on. Animals were sorted into treatment groups based on ambient glucose. At approximately 10 AM, glucose was measured and blood for insulin, glucagon, and drug exposure was collected. […] Each compound tested was dosed at its maximal effective dose determined through a series of dose titrations using this experimental paradigm (data not shown). Effects of treatment on glucose, insulin, and glucagon were measured at 1, 2, 4, and 24 hrs post dose. After the 4 hr blood collection, food was returned overnight and removed the next day at 1 hr post lights on.
as §1

[3] = GLP-1R-/- and wild type mice, MK-2305 10 mg/kg, AP1 30 mg/kg PO
[4] = KO mice, Time 0, individual animals
[5] = KO mice, Time 10, individual animals
[6] = KO mice, Time 20, individual animals
[7] = KO mice, Time 40, individual animals
[8] = KO mice, Time 60, individual animals
[9] = KO mice, Time -60, individual animals
[10] = WT mice, Time 0, individual animals
[11] = WT mice, Time 10, individual animals
[12] = WT mice, Time 20, individual animals
[13] = WT mice, Time 60, individual animals
[14] = WT mice, Time -60, individual animals

## COc1ccc(F)c(-c2ccc([C@@H]3CCc4ccc([C@H](C5CC5)[C@H](C)C(=O)O)cc4O3)cc2)c1 [AP1]
[1]; KO mice
  Plasma Glucagon: 13.34 pg/mL and 13.81 pg/mL and 52.65 pg/mL and 26.95 pg/mL and 36.14 pg/mL and 35.65 pg/mL
[1]; WT mice, 30 mg/kg PO, 1h post dose
  circulating glucagon: increase
[1]; WT mice
  Plasma Glucagon: 101.77 pg/mL and 108.33 pg/mL and 114.33 pg/mL and 421.21 pg/mL and 183.75 pg/mL and 252.53 pg/mL and 120.41 pg/mL
[2]; [3]
  blood glucose excursion during IPGTT: reduced
  insulin following dextrose challenge (IPGTT): increased insulin following the dextrose challenge in both knockout and wild type mice
[2]; [4]
  Blood Glucose: 84 mg/dL and 106 mg/dL and 108 mg/dL and 102 mg/dL and 90 mg/dL and 97 mg/dL and 104 mg/dL
  Plasma Insulin: 1.042 ng/ml and 1.305 ng/ml and 1.695* ng/ml and 1.425 ng/ml and 1.092 ng/ml and 1.099 ng/ml and 1.131 ng/ml
[2]; [5]
  Blood Glucose: 140 mg/dl and 143 mg/dl (2×) and 241 mg/dl and 103 mg/dl and 112 mg/dl and 152 mg/dl
  Plasma Insulin: 1.818 ng/ml and 1.304 ng/ml and 8.134* ng/ml and 2.799 ng/ml and 1.233 ng/ml and 2.777 ng/ml and 1.836 ng/ml
[2]; [6]
  Blood Glucose: 79 mg/dL and 107 mg/dL and 145 mg/dL and 126 mg/dL and 76 mg/dL and 80 mg/dL and 104 mg/dL
  Plasma Insulin: 1.06 ng/ml and 0.804 ng/ml and 3.066* ng/ml and 1.963 ng/ml and 0.693 ng/ml and 1.694 ng/ml and 1.832 ng/ml
[2]; [7]
  Blood Glucose: 58 mg/dL and 108 mg/dL
  Plasma Insulin: 0.728 ng/ml and 0.449 ng/ml and 1.028* ng/ml and 0.546 ng/ml and 0.513 ng/ml and 0.552 ng/ml and 0.628 ng/ml
[2]; [8]
  Blood Glucose: 75 mg/dL and 116 mg/dL and 106 mg/dL and 69 mg/dL and 92 mg/dL and 78 mg/dL and 110 mg/dL
  Plasma Insulin: 0.445 ng/ml and 0.264 ng/ml and 0.373* ng/ml and 0.39 ng/ml and 0.327 ng/ml and 0.218 ng/ml and 0.377 ng/ml
[2]; KO mice, Time 120, individual animals
  Blood Glucose: 66 mg/dL and 102 mg/dL and 86 mg/dL and 103 mg/dL and 77 mg/dL and 71 mg/dL and 121 mg/dL
[2]; [9]
  Blood Glucose: 190 mg/dl and 206 mg/dl (2×) and 172 mg/dl and 181 mg/dl and 204 mg/dl and 230 mg/dl
  Plasma Insulin: 0.47 ng/ml and 0.396 ng/ml and 1.185* ng/ml and 0.53 ng/ml and 0.25 ng/ml and 0.347 ng/ml and 0.673 ng/ml
[2]; KO mice, Time -90, individual animals
  Blood Glucose: 196 mg/dL and 173 mg/dL and 164 mg/dL and 153 mg/dL and 203 mg/dL and 170 mg/dL and 187 mg/dL
[2]; KO mice
  Blood Glucose Net AUC: -16949 and -21574 and -17294 and -16394 and -19399 and -20469 and -21384
[2]; [10]
  Blood Glucose: 89 mg/dl and 78 mg/dl and 112 mg/dl and 100 mg/dl and 85 mg/dl (2×) and 93 mg/dl
  Plasma Insulin: 3.656 ng/ml and 8.79 ng/ml and 40.989* ng/ml and 1.246 ng/ml and 3.561 ng/ml and 1.813 ng/ml and 4.832 ng/ml
[2]; [11]
  Blood Glucose: 166 mg/dL and 152 mg/dL and 163 mg/dL and 220 mg/dL and 195 mg/dL and 184 mg/dL and 168 mg/dL
  Plasma Insulin: 14.251 ng/ml and 18.912 ng/ml and 38.822* ng/ml and 7.869 ng/ml and 14.176 ng/ml and 5.575 ng/ml and 12.785 ng/ml
[2]; [12]
  Blood Glucose: 91 mg/dL and 101 mg/dL and 128 mg/dL and 137 mg/dL and 134 mg/dL and 97 mg/dL and 94 mg/dL
  Plasma Insulin: 4.859 ng/ml and 8.657 ng/ml and 36.643* ng/ml and 4.529 ng/ml and 12.495 ng/ml and 4.309 ng/ml and 7.23 ng/ml
[2]; WT mice, Time 40, individual animals
  Plasma Insulin: 1.713 ng/ml and 4.072 ng/ml and 12.598* ng/ml and 2.583 ng/ml and 4.314 ng/ml and 1.11 ng/ml and 3.089 ng/ml
[2]; [13]
  Blood Glucose: 92 mg/dL and 102 mg/dL and 81 mg/dL and 87 mg/dL and 72 mg/dL and 96 mg/dL and 104 mg/dL
  Plasma Insulin: 1.617 ng/ml and 3.058 ng/ml and 8.765* ng/ml and 1.2 ng/ml and 2.106 ng/ml and 0.602 ng/ml and 3.057 ng/ml
[2]; WT mice, Time 120, individual animals
  Blood Glucose: 76 mg/dl and 96 mg/dl (2×) and 126 mg/dl and 113 mg/dl and 92 mg/dl and 93 mg/dl
[2]; [14]
  Blood Glucose: 175 mg/dL and 176 mg/dL and 194 mg/dL and 178 mg/dL and 190 mg/dL and 196 mg/dL and 226 mg/dL
  Plasma Insulin: 0.973 ng/ml (2×) and 2.15 ng/ml and 4.52* ng/ml and 0.764 ng/ml and 1.183 ng/ml and 1.616 ng/ml
[2]; WT mice, Time -90, individual animals
  Blood Glucose: 168 mg/dL and 146 mg/dL and 183 mg/dL and 161 mg/dL and 151 mg/dL and 156 mg/dL and 176 mg/dL
[2]; WT mice
  Blood Glucose Net AUC: -13948 and -15303 and -14628 and -14263 and -12238 and -14078 and -14253
GK rats; time 0, individual animals
  Plasma Glucagon Over Time (Fig 2C): 55.7691 pg/mL and 68.321 pg/mL and 77.904 pg/mL and 111.395 pg/mL and 52.9088 pg/mL and 48.0782 pg/mL and 166.643 pg/mL and 75.2113 pg/mL
  Plasma Insulin Over Time (Fig 2B): 1.368 ng/mL and 2.115 ng/mL and 2.541 ng/mL and 1.628 ng/mL and 3.5154 ng/mL and 1.38 ng/mL and 1.662 ng/mL and 2.024 ng/mL
GK rats; time 1, individual animals
  Plasma Glucagon Over Time (Fig 2C): 68.4222 pg/mL and 203.855 pg/mL and 443.444 pg/mL and 510.501 pg/mL and 371.284 pg/mL and 243.688 pg/mL and 323.455 pg/mL and 532.086 pg/mL
  Plasma Insulin Over Time (Fig 2B): 2.471 ng/mL and 8.448 ng/mL and 6.286 ng/mL and 2.7997 ng/mL and 8.046 ng/mL and 6.547 ng/mL and 6.926 ng/mL and 4.435 ng/mL
GK rats; time 2, individual animals
  Plasma Glucagon Over Time (Fig 2C): 677.742 pg/mL and 147.407 pg/mL and 198.886 pg/mL and 95.5346 pg/mL and 199.272 pg/mL and 184.367 pg/mL and 336.315 pg/mL and 387.077 pg/mL
  Plasma Insulin Over Time (Fig 2B): 2.6557 ng/mL and 2.936 ng/mL and 3.027 ng/mL and 0.7256 ng/mL and 3.203 ng/mL and 2.271 ng/mL and 3.072 ng/mL and 2.0183 ng/mL
GK rats; time 4, individual animals
  Plasma Glucagon Over Time (Fig 2C): 426.615 pg/mL and 76.1995 pg/mL and 36.6178 pg/mL and 86.9884 pg/mL and 83.1703 pg/mL and 202.015 pg/mL and 219.163 pg/mL and 202.907 pg/mL
  Plasma Insulin Over Time (Fig 2B): 2.117 ng/mL and 1.616 ng/mL and 1.477 ng/mL and 1.139 ng/mL and 1.988 ng/mL and 2.587 ng/mL and 2.052 ng/mL
GK rats; time 24, individual animals
  Plasma Glucagon Over Time (Fig 2C): 168.326 pg/mL and 107.348 pg/mL and 18.8494 pg/mL and 200.464 pg/mL and 140.291 pg/mL and 122.096 pg/mL and 264.039 pg/mL and 261.868 pg/mL
  Plasma Insulin Over Time (Fig 2B): 1.016 ng/mL and 0.9428 ng/mL and 0.1505 ng/mL and 1.222 ng/mL and 1.548 ng/mL and 1.3655 ng/mL and 1.314 ng/mL and 1.563 ng/mL
